pIC50: −log10 of the molar value. Where a name gives a salt, the structure may show the parent alone. Read-outs that look alike come from different tables or passages of the source.
What was measured:
Format in all cases: cell-based
[1] = target: T1, human EGFR exon 20 H773_V774insNPH (Homo sapiens, UniProt P00533, INS773NPH); experiment: EGFR Exon20 NPH insertion cellular phosphorylation inhibition (MSD pEGFR Y1068/total EGFR); conditions: Ba/F3 EGFR NPH ins cells, 4 h compound, p-EGFR(Y1068)/total EGFR;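 further: IL3-independent Ba/F3 cells with constitutively phosphorylated EGFR, compound exposure at 37 °C under 5% CO2, electrochemiluminescent MSD measurement of the p-EGFR to total EGFR ratio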
T1 construct: host or cells: Ba/F3

[2] = target: T2, human EGFR exon 20 V769_D770insASV (Homo sapiens, UniProt P00533, INS769ASV); experiment: EGFR Exon20 ASV insertion cellular phosphorylation inhibition (MSD pEGFR Y1068/total EGFR); conditions: Ba/F3 EGFR ASV ins cells, 4 h compound, p-EGFR(Y1068)/total EGFR;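 further: electrochemiluminescent readout on an MSD SECTOR Imager, IL3-independent transduced cells in medium with 1% FBS, compound concentration series at 37 °C and 5% CO2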
T2 construct: expressed in transfected cells; host or cells: Ba/F3 (DSMZ ACC-300), lentiviral transduction, puromycin selection, IL3 depletion

[3] = target: T3, human Her2 exon 20 insertion mutation YVMA (Homo sapiens, UniProt P04626, INS775YVMA); experiment: Her2 Exon 20 YVMA insertion cellular phosphorylation inhibition (MSD p-Her2 Y1248/total Her2); conditions: Her2 YVMAins cells, 4 h compound;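 further: lentivirally transduced NIH-3T3 cells in 1% FBS medium, electrochemiluminescent MSD read-out, graded compound concentrations at 37 °C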
T3 construct: expressed in transfected cells; host or cells: NIH-3T3, lentiviral transduction, puromycin selection

Ba/F3 EGFR NPH ins cells = experiment: Cell proliferation, Ba/F3 EGFR NPH ins (CellTiter-Glo, 72 h); conditions: Ba/F3 EGFR, 72 h;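 further: IL3-independent cells carrying constitutively phosphorylated EGFR, compound dilution series, viable cells quantified by ATP luminescence, growth relative to DMSO wells after subtracting pre-dosing (day 0) baseline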
Description: Similar to recombinant human EGFR exon 20 H769_V770insASV Ba/F3 cell line, the recombinant human EGFR exon 20 H773_V774insNPH Ba/F3 cell line also expresses constitutively phosphorylated EGFR protein and proliferates in the absence of IL3, which could be used for in vitro PD and anti-proliferation assays.
(§1) WT or mutant cells were seeded in 384 well plates at appropriate concentrations with corresponding growth media supplemented with 10% FBS, for each experiment, identical plates were prepared in duplicates, and the plates were incubated overnight. On the next day, one of each duplicated plates was dosed with tested compounds at a series of concentrations, and another one of the duplicated plate was analysied for G0 value. The dosed plates were incubate for another 72 h at 37° C. with 5% CO2 and the number of viable cells in each well of the G0 plates or the dosed plates were measured by CellTiter-Glo® Luminescent Cell Viability Assay (Promega). This assay is a luminescent method for determining the number viable cells through measurement of cellular ATP concentration by detection of luciferase activity. Detection reagents (15 µl) was dispensed into per well, and the plates were incubate for 30 min at room temperature. Then, the luminescence in each well was measured using the Envision plate reader (PerkinElmer). The percentage of proliferation was calculated based on the formula: %Proliferation= 100 × (G3 value of sample well-Go value)/(G3 value of DMSO control-Go value).

Ba/F3 EGFR ASV ins cells = experiment: Cell proliferation, Ba/F3 EGFR ASV ins (CellTiter-Glo, 72 h); conditions: Ba/F3 EGFR, 72 h;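 further: IL3-independent Ba/F3 cells transduced with EGFR V769_D770insASV, cellular ATP luminescence after compound exposure, growth relative to DMSO control with the day-0 baseline reading subtracted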
[4] = test system: NCI-H1975 EGFR L858R/T790M cells; experiment: Cell proliferation, NCI-H1975 EGFR L858R/T790M (CellTiter-Glo, 72 h); conditions: Homo sapiens, NCI-H1975, 72 h;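 further: viable cells quantified by luciferase-based ATP luminescence, proliferation expressed relative to DMSO-treated wells (100%) after subtracting a parallel plate read at the time of dosing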
Description: as §1

[5] = test system: Her2 exon 20 insertion YVMA transduced NIH-3T3 cell line; experiment: Cell proliferation, Her2 YVMAins NIH-3T3 (CellTiter-Glo, 72 h); conditions: Mus musculus, NIH3T3, 72 h;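 further: viable cells quantified by ATP luminescence, growth over a day-zero baseline plate expressed as percent of DMSO control growth, compound dilution series in 10% FBS medium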
WT EGFR cell line A-431 = experiment: Cell proliferation, WT EGFR A431 (CellTiter-Glo, 72 h); conditions: Homo sapiens, A-431, 72 h;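 further: proliferation from a luminescent ATP viability signal, expressed as 100 × (treated minus time-zero plate) over (DMSO control minus time-zero plate), cells grown with 10% FBS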
OCI-LY-10 cells = experiment: BTK (wt) cell proliferation, OCI-LY-10 (CellTiter-Glo, 72 h); conditions: Homo sapiens, OCI-Ly10, 72 h, read-out: BTK WT OCI-LY-10 GI50;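 further: viable cells quantified via cellular ATP luminescence, proliferation given as percent of DMSO control after subtracting a duplicate plate read at time of dosing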
TMD-8 cells = experiment: BTK (wt) cell proliferation, TMD-8 (CellTiter-Glo, 72 h); conditions: Homo sapiens, TMD8, 72 h, read-out: BTK WT TMD-8 GI50;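 further: viable cells quantified by ATP-based luminescence, proliferation expressed as percent of DMSO control after subtracting a time-zero baseline plate read at dosing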
Description: (§2) OCI-LY-10 at 3,750 cells/well, TMD-8 and Ri-1 at 2,000 cells/well, and DB at 1,250 cells/well, respectively, were sorted into 384-well plates in RPMI1640 medium with 10% FBS. After overnight incubation, all cells were incubated with compound at a series of concentrations. Meanwhile, a duplicated plate of each cell line was prepared for measuring G0 value. The dosed plates were further incubated for 72 hours and the number of viable cells was measured by CellTiter-Glo® Luminescent Cell Viability Assay (Promega), a luminescent method for determining the number of viable cells through measurement of cellular ATP concentration using Envision plate reader (PerkinElmer). The percentage of proliferation was calculated as: % Proliferation = 100 × (G3 value of sample well - G0 value)/(G3 value of DMSO control - G0 value).

Ri-1 cells = experiment: BTK (wt) cell proliferation, Ri-1 (CellTiter-Glo, 72 h); conditions: Ri-1, 72 h, read-out: BTK WT Ri-1 GI50;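 further: viable cells quantified as cellular ATP luminescence, proliferation normalized to a time-zero plate and the DMSO control, compounds tested across a dilution series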
Description: as §2

DB cells = experiment: BTK (wt) cell proliferation, DB (CellTiter-Glo, 72 h); conditions: Homo sapiens, DB, read-out: Non-BCR activated DB GI50;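 further: DB cells in 384-well plates given a dilution series of compound, viable cells read by ATP luminescence, growth expressed versus DMSO control after subtracting a time-zero plate reading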
EGFR L858R&T790M = target: T4, EGFR L858R&T790M (Homo sapiens, UniProt P00533, L858R/T790M); experiment: EGFR L858R and T790M cellular phosphorylation inhibition in NCI-H1975 (MSD); conditions: NCI-H1975 cells, 4 h compound, p-EGFR(Y1068)/total EGFR; read-out: EGFR L858R and T790M mutation IC50;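 further: phosphorylated and total EGFR detected by electrochemiluminescence, cells exposed to compound in medium containing 1% FBS at 37 °C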
T4 construct: host or cells: NCI-H1975

[6] = Her2 YVMAins cells, 72 h proliferation, read-out: Her2 Exon 20 YVMA insertion GI50
[7] = OCI-LY-10 cells, 72 h, CellTiter-Glo
[8] = TMD-8 cells, 72 h, CellTiter-Glo
[9] = Ri-1 cells, 72 h, CellTiter-Glo
[10] = Ba/F3 EGFR NPH ins, 72 h proliferation, read-out: EGFR Exon20 NPH insertion GI50
[11] = Ba/F3 EGFR ASV ins, 72 h proliferation, read-out: EGFR Exon20 ASV insertion GI50
[12] = NCI-H1975, 72 h proliferation, read-out: EGFR L858R and T790M mutation GI50
[13] = A431, 72 h proliferation, read-out: EGFR WT A431 GI50

T2 sequence (P00533 with tags, fused parts or gaps INS769ASV): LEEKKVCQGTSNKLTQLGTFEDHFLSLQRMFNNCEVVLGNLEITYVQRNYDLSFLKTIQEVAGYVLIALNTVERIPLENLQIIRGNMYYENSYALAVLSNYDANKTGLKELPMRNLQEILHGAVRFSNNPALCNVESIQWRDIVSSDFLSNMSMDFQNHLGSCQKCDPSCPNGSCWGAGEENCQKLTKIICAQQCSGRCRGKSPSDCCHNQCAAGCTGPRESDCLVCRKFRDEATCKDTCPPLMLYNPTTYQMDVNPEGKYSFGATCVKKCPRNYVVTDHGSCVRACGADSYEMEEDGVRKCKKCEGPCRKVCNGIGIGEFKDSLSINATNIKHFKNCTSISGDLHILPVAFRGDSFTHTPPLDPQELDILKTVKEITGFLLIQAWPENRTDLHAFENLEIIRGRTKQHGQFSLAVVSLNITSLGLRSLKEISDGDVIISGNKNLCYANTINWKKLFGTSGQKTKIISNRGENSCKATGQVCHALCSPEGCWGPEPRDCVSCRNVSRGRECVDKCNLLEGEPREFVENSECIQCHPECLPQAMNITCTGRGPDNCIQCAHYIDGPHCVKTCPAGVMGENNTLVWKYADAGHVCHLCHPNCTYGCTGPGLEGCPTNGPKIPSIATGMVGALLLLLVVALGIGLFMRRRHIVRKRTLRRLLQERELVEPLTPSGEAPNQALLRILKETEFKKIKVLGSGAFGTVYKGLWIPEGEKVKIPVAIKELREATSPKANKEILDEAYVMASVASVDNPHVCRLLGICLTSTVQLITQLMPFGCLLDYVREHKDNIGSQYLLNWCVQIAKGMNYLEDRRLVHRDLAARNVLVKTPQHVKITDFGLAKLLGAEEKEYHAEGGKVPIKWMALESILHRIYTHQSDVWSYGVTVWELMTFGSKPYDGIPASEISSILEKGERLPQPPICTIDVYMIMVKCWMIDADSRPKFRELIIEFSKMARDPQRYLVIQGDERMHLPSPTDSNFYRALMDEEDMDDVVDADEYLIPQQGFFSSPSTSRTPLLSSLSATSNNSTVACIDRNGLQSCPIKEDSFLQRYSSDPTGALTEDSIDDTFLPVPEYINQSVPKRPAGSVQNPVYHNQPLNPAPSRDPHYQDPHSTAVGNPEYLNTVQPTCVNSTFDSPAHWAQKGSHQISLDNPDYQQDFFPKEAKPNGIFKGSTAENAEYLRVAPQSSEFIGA
T3 sequence (P04626 with tags, fused parts or gaps INS775YVMA): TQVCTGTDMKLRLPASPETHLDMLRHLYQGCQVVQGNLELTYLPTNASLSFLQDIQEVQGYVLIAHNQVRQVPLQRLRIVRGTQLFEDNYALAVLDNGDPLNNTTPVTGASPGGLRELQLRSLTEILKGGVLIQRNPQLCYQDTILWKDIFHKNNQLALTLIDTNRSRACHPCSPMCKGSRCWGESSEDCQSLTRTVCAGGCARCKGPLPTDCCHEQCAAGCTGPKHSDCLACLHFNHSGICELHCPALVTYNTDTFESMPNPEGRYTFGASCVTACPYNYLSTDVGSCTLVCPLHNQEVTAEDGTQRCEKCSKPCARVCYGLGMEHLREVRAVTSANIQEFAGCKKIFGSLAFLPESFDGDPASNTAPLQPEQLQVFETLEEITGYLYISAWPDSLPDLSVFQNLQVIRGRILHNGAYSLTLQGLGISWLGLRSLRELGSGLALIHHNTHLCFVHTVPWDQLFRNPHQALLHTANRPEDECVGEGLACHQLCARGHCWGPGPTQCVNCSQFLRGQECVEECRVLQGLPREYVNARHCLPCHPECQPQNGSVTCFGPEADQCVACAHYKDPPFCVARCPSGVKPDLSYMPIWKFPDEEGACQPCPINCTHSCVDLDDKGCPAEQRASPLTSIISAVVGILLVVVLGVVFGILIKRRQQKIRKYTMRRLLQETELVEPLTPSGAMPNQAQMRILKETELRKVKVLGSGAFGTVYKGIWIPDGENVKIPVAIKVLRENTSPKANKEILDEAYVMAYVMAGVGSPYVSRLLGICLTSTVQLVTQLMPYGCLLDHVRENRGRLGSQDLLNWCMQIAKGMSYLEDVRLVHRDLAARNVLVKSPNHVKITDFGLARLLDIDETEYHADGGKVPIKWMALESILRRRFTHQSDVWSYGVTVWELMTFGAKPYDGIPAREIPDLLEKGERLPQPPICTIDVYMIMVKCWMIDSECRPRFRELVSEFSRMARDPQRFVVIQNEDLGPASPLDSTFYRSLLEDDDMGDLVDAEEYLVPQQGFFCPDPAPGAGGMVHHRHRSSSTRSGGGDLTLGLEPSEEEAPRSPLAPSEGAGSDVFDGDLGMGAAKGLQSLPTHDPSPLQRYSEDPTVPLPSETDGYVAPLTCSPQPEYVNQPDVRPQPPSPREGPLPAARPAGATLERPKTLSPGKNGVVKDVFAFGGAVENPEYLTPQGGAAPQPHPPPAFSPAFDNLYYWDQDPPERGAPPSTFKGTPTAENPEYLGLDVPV
T1 sequence (P00533 with tags, fused parts or gaps INS773NPH): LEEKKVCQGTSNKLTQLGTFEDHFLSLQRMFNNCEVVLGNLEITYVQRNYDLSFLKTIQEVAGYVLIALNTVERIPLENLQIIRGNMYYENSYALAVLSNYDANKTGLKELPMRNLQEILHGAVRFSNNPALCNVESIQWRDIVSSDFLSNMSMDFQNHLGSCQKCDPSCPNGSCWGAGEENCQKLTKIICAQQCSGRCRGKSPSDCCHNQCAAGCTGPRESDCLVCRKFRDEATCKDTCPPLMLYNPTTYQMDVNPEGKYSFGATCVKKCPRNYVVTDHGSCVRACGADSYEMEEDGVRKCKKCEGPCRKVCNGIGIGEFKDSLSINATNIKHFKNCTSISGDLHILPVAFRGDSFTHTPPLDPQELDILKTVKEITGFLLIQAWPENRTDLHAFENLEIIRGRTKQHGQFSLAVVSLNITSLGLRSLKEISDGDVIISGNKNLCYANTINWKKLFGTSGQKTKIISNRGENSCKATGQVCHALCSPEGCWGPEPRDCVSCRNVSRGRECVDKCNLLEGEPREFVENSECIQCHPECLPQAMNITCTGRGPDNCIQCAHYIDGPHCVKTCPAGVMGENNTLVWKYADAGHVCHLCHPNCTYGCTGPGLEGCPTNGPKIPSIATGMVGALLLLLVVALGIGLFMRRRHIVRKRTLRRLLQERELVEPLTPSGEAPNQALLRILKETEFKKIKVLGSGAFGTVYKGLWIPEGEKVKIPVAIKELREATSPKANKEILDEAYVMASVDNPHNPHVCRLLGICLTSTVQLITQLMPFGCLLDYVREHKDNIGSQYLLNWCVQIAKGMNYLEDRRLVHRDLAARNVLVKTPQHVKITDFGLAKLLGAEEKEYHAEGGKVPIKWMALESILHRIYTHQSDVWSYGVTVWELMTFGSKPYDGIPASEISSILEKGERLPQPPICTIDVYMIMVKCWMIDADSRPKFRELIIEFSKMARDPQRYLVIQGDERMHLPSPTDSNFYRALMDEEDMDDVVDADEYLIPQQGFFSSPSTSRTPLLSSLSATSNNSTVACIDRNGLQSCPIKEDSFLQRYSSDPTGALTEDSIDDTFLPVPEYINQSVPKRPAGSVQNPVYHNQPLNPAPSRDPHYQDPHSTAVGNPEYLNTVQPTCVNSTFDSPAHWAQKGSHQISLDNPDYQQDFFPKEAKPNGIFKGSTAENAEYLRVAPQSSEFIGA
T4 sequence (P00533 25-1210 T790M/L858R): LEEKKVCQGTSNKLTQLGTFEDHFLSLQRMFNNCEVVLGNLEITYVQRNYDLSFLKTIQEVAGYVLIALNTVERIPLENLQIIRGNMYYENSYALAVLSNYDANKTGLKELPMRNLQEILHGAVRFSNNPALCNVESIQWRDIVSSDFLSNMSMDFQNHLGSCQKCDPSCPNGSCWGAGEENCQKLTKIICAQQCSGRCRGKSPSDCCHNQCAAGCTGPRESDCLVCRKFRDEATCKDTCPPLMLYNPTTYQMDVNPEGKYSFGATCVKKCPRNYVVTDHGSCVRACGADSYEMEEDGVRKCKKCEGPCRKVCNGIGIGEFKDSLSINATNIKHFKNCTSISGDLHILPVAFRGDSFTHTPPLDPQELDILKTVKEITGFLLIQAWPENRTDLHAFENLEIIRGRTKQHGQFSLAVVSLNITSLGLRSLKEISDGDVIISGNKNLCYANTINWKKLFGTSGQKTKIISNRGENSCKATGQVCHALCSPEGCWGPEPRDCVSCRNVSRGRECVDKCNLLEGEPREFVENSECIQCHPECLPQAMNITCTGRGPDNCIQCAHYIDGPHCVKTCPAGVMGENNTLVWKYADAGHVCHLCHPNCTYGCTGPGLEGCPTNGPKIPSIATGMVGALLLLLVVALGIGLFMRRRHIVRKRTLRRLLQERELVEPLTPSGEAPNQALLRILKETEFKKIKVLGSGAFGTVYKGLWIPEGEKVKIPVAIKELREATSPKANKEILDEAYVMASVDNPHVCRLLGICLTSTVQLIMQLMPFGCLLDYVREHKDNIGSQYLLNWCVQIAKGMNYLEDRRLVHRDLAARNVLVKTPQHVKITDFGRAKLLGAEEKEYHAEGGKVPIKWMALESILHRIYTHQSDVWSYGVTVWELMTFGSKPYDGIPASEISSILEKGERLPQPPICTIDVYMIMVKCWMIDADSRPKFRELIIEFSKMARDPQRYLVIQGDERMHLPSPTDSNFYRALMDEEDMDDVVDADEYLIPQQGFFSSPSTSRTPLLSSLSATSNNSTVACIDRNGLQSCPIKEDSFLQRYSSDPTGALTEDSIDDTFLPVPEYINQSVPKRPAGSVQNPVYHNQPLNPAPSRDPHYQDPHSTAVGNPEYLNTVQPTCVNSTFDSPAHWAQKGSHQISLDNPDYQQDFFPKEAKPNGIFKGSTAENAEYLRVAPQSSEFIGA

SMILES	pIC50 [1]	pIC50 [2]	pIC50 [3]	GI50 [5, 6] [nM]	GI50 (OCI-LY-10 cells; [7]) [nM]	GI50 (TMD-8 cells; [8]) [nM]	GI50 (Ri-1 cells; [9]) [nM]	GI50 (DB cells; DB cells, CellTiter-Glo) [nM]	GI50 (Ba/F3 EGFR NPH ins cells; [10]) [nM]	GI50 (Ba/F3 EGFR ASV ins cells; [11]) [nM]	GI50 [4, 12] [nM]	GI50 (WT EGFR cell line A-431; [13]) [nM]	further results
C=CC(=O)Nc1cc(Nc2nccc(Nc3cc(Cl)c(F)cc3C(C)(C)O)n2)c(OC)cc1N(C)C[C@H]1C[C@H](C)CN1C [Compound 90, N-(5-(4-(5-chloro-4-fluoro-2-(2-hydroxypropan-2-yl)phenylamino)pyrimidin-2-ylamino)-2-((((2R,4S)-1,4-dimethylpyrrolidin-2-yl)methyl)(methyl)amino)-4-methoxyphenyl) acrylamide formic acid salt]	7.51	7.24	7.56	284	82.7	45	83.8	> 3000	–	–	–	–	GI50 (Ba/F3 EGFR NPH ins cells; read-out: EGFR Exon20 NPH insertion GI50 (nM)): 76.4 nM; GI50 (Ba/F3 EGFR ASV ins cells; read-out: EGFR Exon20 ASV insertion GI50 (nM)): 83.1 nM; GI50 ([4]; read-out: EGFR L858R and T790M mutation GI50 (nM)): 6.1 nM; GI50 (WT EGFR cell line A-431; read-out: EGFR WT A431 GI50 (nM)): 59.4 nM
CN(C)C/C=C/C(=O)Nc1cc2c(Nc3ccc(F)c(Cl)c3)ncnc2cc1O[C@H]1CCOC1 [Afatinib, reference compound]	–	–	–	–	–	–	–	–	–	–	–	–	GI50 ([5]; read-out: Her2 Exon 20 YVMA insertion GI50 (nM)): 17.8 nM; GI50 (OCI-LY-10 cells): 1040 nM; GI50 (TMD-8 cells): 1160 nM; GI50 (Ri-1 cells): 1030 nM; GI50 (DB cells): 657 nM
C=CC(=O)Nc1cc(Nc2ncnc(Nc3cc(F)c(F)cc3C(C)(C)O)n2)c(OC)cc1N(C)CCN1CCCCC1 [Compound 24]	7.19	7.52	7.31	303	324	107	415	> 3000	142	101	23	55.5	–
Cc1cc(C(=O)Nc2nc3cccc(Cl)c3n2[C@@H]2CCCCN(C(=O)/C=C/CN(C)C)C2)ccn1 [EGF816, reference compound]	–	–	6.93	242	235	166	897	> 3000	491	502	42.5	265	–
C=CC(=O)Nc1cc(Nc2ncnc(Nc3cnc(C)cc3C(C)(C)O)n2)c(OC)cc1N(C)CCN(C)C [Compound 6, N-(2-((2-(dimethylamino)ethyl)(methyl)amino)-5-(4-(4-(2-hydroxypropan-2-yl)-6-methylpyridin-3-ylamino)-1,3,5-triazin-2-ylamino)-4-methoxyphenyl) acrylamide]	6.42	6.72	7.01	534	210	335	289	> 3000	625	250	93.7	64.7	–
C=CC(=O)Nc1cc(Nc2ncnc(Nc3ccc(C(F)(F)F)cc3C(C)(C)O)n2)c(OC)cc1N(C)CCN(C)C [Compound 13, N-(2-((2-(dimethylamino)ethyl)(methyl)amino)-5-(4-(2-(2-hydroxypropan-2-yl)-4-(trifluoromethyl)phenylamino)-1,3,5-triazin-2-ylamino)-4-methoxyphenyl)acrylamide]	7.40	7.64	7.44	156	54.5	56.3	120	> 3000	76.5	53.3	15.3	22.5	–
C=CC(=O)Nc1cc(Nc2ncc(OC)c(Nc3cc(Cl)c(F)cc3C(C)(C)O)n2)c(OC)cc1N(C)CCN(C)C [Compound 81, N-(5-(4-(5-chloro-4-fluoro-2-(2-hydroxypropan-2-yl)phenylamino)-5-methoxypyrimidin-2-ylamino)-2-((2-(dimethylamino)ethyl)(methyl)amino)-4-methoxyphenyl)acrylamide]	7.09	–	6.52	354	–	–	–	–	136	149	4.6	35.7	pIC50 (EGFR L858R&T790M): 8.96

Source: patent US20230293535A1, “ERBB/BTK INHIBITORS” (Dizal (Jiangsu) Pharmaceutical Co., Ltd., priority 2018, published 2023)
